From ChEMBL document CHEMBL3860095, “1H-1,2,3-Triazolyl-substituted 1,3,4-oxadiazole derivatives containing structural features of ibuprofen/naproxen: Their synthesis and antibacterial evaluation” (2016)

Tests used:
Format in all cases: functional
Details in all cases: read-out: DIZ
Pseudomonas aeruginosa [1] = experiment: Antibacterial activity against clinical isolates of Pseudomonas aeruginosa at 0.5 mg after overnight incubation by agar well diffusion method
Bacillus subtilis = experiment: Antibacterial activity against clinical isolates of Bacillus subtilis at 0.5 mg after overnight incubation by agar well diffusion method
Staphylococcus aureus [2] = experiment: Antibacterial activity against clinical isolates of Staphylococcus aureus at 0.5 mg after overnight incubation by agar well diffusion method
[3] = test system: Staphylococcus epidermidis; experiment: Antibacterial activity against clinical isolates of Staphylococcus epidermidis at 0.5 mg after overnight incubation by agar well diffusion method
Klebsiella pneumoniae [4] = experiment: Antibacterial activity against clinical isolates of Klebsiella pneumoniae at 0.5 mg after overnight incubation by agar well diffusion method
Escherichia coli [5] = experiment: Antibacterial activity against clinical isolates of Escherichia coli at 0.5 mg after overnight incubation by agar well diffusion method
Escherichia coli [6] = experiment: Antibacterial activity against clinical isolates of Escherichia coli at 0.05 mg after overnight incubation by agar well diffusion method
Klebsiella pneumoniae [7] = experiment: Antibacterial activity against clinical isolates of Klebsiella pneumoniae at 0.05 mg after overnight incubation by agar well diffusion method
Pseudomonas aeruginosa [8] = experiment: Antibacterial activity against clinical isolates of Pseudomonas aeruginosa at 0.05 mg after overnight incubation by agar well diffusion method
Staphylococcus aureus [9] = experiment: Antibacterial activity against clinical isolates of Staphylococcus aureus at 0.05 mg after overnight incubation by agar well diffusion method

SMILES	zone of inhibition at 500 µg/disc (Pseudomonas aeruginosa [1]) [mm]	zone of inhibition at 500 µg/disc (Bacillus subtilis) [mm]	zone of inhibition at 500 µg/disc (Staphylococcus aureus [2]) [mm]	zone of inhibition at 500 µg/disc [3] [mm]	zone of inhibition at 500 µg/disc (Klebsiella pneumoniae [4]) [mm]	zone of inhibition at 500 µg/disc (Escherichia coli [5]) [mm]	zone of inhibition at 50 µg/disc (Escherichia coli [6]) [mm]	zone of inhibition at 50 µg/disc (Klebsiella pneumoniae [7]) [mm]	zone of inhibition at 50 µg/disc (Pseudomonas aeruginosa [8]) [mm]	zone of inhibition at 50 µg/disc (Staphylococcus aureus [9]) [mm]
CC(C)Cc1ccc(C(C)c2nnc(SCc3cn(CC(=O)Nc4ccc(Cl)cc4)nn3)o2)cc1 (racemic)	14	16	11	15	15	15				
COc1ccc2cc([C@H](C)c3nnc(SCc4cn(CC(=O)Nc5ccccc5C)nn4)o3)ccc2c1	14	12	13	15	13	10				
COc1ccc2cc([C@H](C)c3nnc(SCc4cn(CC(=O)Nc5cccc(Cl)c5)nn4)o3)ccc2c1	13	14	12	11	10	12				
CC(C)Cc1ccc(C(C)c2nnc(SCc3cn(CC(=O)Nc4cccc(Cl)c4)nn3)o2)cc1 (racemic)	15	12	14	13	11	12				
NCC[C@H](O)C(=O)N[C@@H]1C[C@H](N)[C@@H](O[C@H]2O[C@H](CN)[C@@H](O)[C@H](O)[C@H]2O)[C@H](O)[C@H]1O[C@H]1O[C@H](CO)[C@@H](O)[C@H](N)[C@H]1O [AMIKACIN]							20	23	22	23
COc1ccc2cc([C@H](C)c3nnc(SCc4cn(CC(=O)Nc5ccccc5Cl)nn4)o3)ccc2c1	14	15	15	16	14	13				
CC(C)Cc1ccc(C(C)c2nnc(SCc3cn(-c4ccccc4)nn3)o2)cc1 (racemic)	11	11	10	9	10	10				
Cc1ccccc1NC(=O)Cn1cc(CSc2nnc(C(C)c3ccc(CC(C)C)cc3)o2)nn1 (racemic)	14	11	13	13	13	13				
CC(C)Cc1ccc(C(C)c2nnc(SCc3cn(CC(=O)Nc4ccccc4[N+](=O)[O-])nn3)o2)cc1 (racemic)	9	10	11	10	9	11				
COc1ccc2cc([C@H](C)c3nnc(SCc4cn(CC(=O)Nc5c(C)cccc5C)nn4)o3)ccc2c1	11	15	13	12	9	11				
COc1ccc2cc([C@H](C)c3nnc(SCc4cn(-c5ccccc5)nn4)o3)ccc2c1	12	14	14	15	12	13				
